# Measurements as given in patent publication EP3860599B1, “(+)-ALPHA-DIHYDROTETRABENAZINE DOSAGE REGIMEN FOR TREATING MOVEMENT DISORDERS” (Adeptio Pharmaceuticals Limited, priority 2018, dated 2020).
# Where two headings read alike, the source gives them in different places.
# Assays:
# Assay type in all cases: in vivo
# [1] = Plasma concentrations up to 7 hours after oral dosing of human volunteers, Example 1B; conditions: 7.5 mg
# Protocol: Volunteers 1 and 2 were the same as volunteers 1 and 2 in Example 1A described above. […] In addition, in all volunteers PET scans were initiated at 6 hours after drug administration and these were stopped at 7 hours after drug administration. […]
# [2] = test system: non-amphetamine induced rats; assay: Open field locomotor activity test in rats without amphetamine induction (Example 2, Study 3); conditions: 2.5 mg/kg or 5 mg/kg
# Protocol: (§1) All animal experiments were carried out according to the National Institute of Health (NIH) guidelines for the care and use of laboratory animals, and approved by the National Animal Experiment Board, Finland. Male CD (Charles River Laboratories, Germany) at weight range of 200-250 g (165-200 g upon arrival) were used for the experiments. Animals were housed at a standard temperature (22 ± 1°C) and in a light-controlled environment (lights on from 7 am to 8 pm) with ad libitum access to food and water.
# (§2) Locomotor activity of the rats was tested in open field arena. The open field test was performed during the rat light cycle and under a normal lighting evenly distributed to the test chambers. The paths of the rats were recorded by activity monitor (Med. Associates Inc.).
# (§3) Dosing the vehicle, vehicle-amphetamine, (+)-α-DHTBZ or risperidone was done prior to LMA test. The rats were placed in the centre of the arena, and the path was recorded for 60 minutes.
# Animals were grouped as follows: • Group 1: 10 rats treated with Vehicle • Group 2: 10 rats treated with (+)-α-DHTBZ 2.5 mg/kg • Group 3: 10 rats treated with (+)-α-DHTBZ 5 mg/kg • Group 4: 10 rats treated with risperidone 1 mg/kg
# [3] = test system: amphetamine-induced rats; assay: Open field locomotor activity test in amphetamine-induced rats (Example 2, Studies 1, 2 and 4)
# Protocol: as §1, §2, §3
# Animals were grouped as follows: • Group 1: 10 rats treated with Vehicle (t= 0 min) and Vehicle (t= 30 min) • Group 2: 10 rats treated with Vehicle (t= 0 min) and Amphetamine (t= 30 min) • Group 3: 10 rats treated with (+)-α-DHTBZ 0.5 mg/kg (t=0 min) and Amphetamine (t= 30 min) • Group 4: 10 rats treated with (+)-α-DHTBZ 1 mg/kg (t=0 min) and Amphetamine (t= 30 min) • Group 5: 10 rats treated with (+)-α-DHTBZ 1.5 mg/kg (t=0 min) and Amphetamine (t= 30 min) • Group 6: 10 rats treated with (+)-α-DHTBZ 2 mg/kg (t=0 min) and Amphetamine (t= 30 min) • Group 7: 10 rats treated with risperidone 1 mg/kg (t=0 min) and Amphetamine (t= 30 min)
# Animals were grouped as follows: • Group 1: 10 rats treated with Vehicle (t= 0 min) and Vehicle (t= 30 min) • Group 2: 10 rats treated with Vehicle (t= 0 min) and Amphetamine (t= 30 min) • Group 3: 10 rats treated with (+)-α-DHTBZ 0.1 mg/kg (t=0 min) and Amphetamine (t=30 min) • Group 4: 10 rats treated with (+)-α-DHTBZ 0.25 mg/kg (t=0 min) and Amphetamine (t=30 min) • Group 5: 10 rats treated with risperidone 1 mg/kg (t=0 min) and Amphetamine (t= 30 min)
# Animals were grouped as follows: • Group 1: 10 rats treated with Vehicle (t= 0 min) and Vehicle (t= 30 min) • Group 2: 10 rats treated with Vehicle (t= 0 min) and Amphetamine (t= 30 min) • Group 3: 10 rats treated with (+)-α-DHTBZ 1 mg/kg (t=0 min) and Amphetamine (t=30 min) • Group 4: 10 rats treated with (+)-α-DHTBZ 1.5 mg/kg (t=0 min) and Amphetamine (t=30 min) • Group 5: 10 rats treated with Valbenazine 1 mg/kg (t=0 min) and Amphetamine (t=30 min) • Group 6: 10 rats treated with Valbenazine 1.5 mg/kg (t=0 min) and Amphetamine (t=30 min) • Group 7: 10 rats treated with risperidone 1 mg/kg (t=0 min) and Amphetamine (t= 30 min)
# [4] = molecular target: T1, VMAT2 (Homo sapiens, UniProt Q05940); assay: % VMAT2 blocking in caudate and putamen by PET scan 6-7 hours after oral dosing, Example 1B; conditions: for receptor occupancy at 7.5 mg: po, 7.5 mg oral, PET scan 6-7 hours after administration
# T1 construct: from tissue
# T1 sequence (Q05940 whole entry): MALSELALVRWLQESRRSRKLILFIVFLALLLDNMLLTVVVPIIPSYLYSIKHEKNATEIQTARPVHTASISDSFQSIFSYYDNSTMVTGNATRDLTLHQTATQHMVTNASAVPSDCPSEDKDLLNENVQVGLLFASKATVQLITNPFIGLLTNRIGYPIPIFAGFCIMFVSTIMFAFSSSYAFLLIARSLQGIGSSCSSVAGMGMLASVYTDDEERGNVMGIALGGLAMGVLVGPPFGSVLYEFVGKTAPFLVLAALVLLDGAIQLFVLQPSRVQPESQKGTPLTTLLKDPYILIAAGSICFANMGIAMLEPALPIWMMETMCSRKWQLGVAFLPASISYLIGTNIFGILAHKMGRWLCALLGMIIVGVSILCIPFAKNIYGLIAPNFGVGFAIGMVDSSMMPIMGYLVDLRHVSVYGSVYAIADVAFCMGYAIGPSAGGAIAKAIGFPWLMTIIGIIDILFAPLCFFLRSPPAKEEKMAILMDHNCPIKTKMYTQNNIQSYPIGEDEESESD
# Text: Complete blocking of VMAT2 is considered undesirable as this can lead to unwanted side effects, such as Parkinsonism. […] The levels of VMAT2 blocking can be determined by competitive binding studies using Positron Emission Tomography (PET). By co-administering a radioactive ligand with the compound of interest at various concentrations, the proportion of binding sites occupied can be determined (see for example, Matthews et al., "Positron emission tomography molecular imaging for drug development", Br. J. Clin. Pharmacol., 73:2, 175-186).
# Volunteers 1 and 2 were the same as volunteers 1 and 2 in Example 1A described above. […] Blood sample were taken from all volunteers at 2, 4, 6 and 7 hours after drug administration. In addition, in all volunteers PET scans were initiated at 6 hours after drug administration and these were stopped at 7 hours after drug administration.
# [5] = po, Example 1B subject 1 (112 kg), 7.5 mg oral
# [6] = po, Example 1B subject 2 (76 kg), 7.5 mg oral
# [7] = po, Example 1B subject 3 (76 kg), 7.5 mg oral
# [8] = po, Example 1B subject 4 (95 kg), 7.5 mg oral
# [9] = po, Example 1B subject 5 (99 kg), 7.5 mg oral
# [10] = po, Example 1B subject 6 (107 kg), 7.5 mg oral
# [11] = Study 1 conclusions, all the tested doses (0.5, 1, 1.5 and 2 mg/kg)
smiles,measurement,setting,value
"COc1cc2c(cc1OC)[C@H]1C[C@@H](O)[C@H](CC(C)C)CN1CC2 [(+)-α-dihydrotetrabenazine, (R,R,R)-3-isobutyl-9,10-dimethyloxy-1,3,4,5,7,11b-hexahydro-2H-pyrido[2,1-a]isoquinolin-2-ol]",concentration at 6 h,"[1]; oral, after 6 hours following administration of 7.5mg, read-out: blood plasma concentrations",< 15 ng/mL
same,concentration at 2 h,[1]; [5],8.7 ng/mL
same,concentration at 4 h,[1]; [5],6.01 ng/mL
same,concentration at 6 h,"[1]; po, Example 1B subject 1 (112 kg), 7.5 mg oral, 6 h, read-out: plasma concentrations",4.54 ng/mL
same,concentration at 7 h,[1]; [5],3.65 ng/mL
same,concentration at 2 h,[1]; [6],11.7 ng/mL
same,concentration at 4 h,[1]; [6],17.5 ng/mL
same,concentration at 6 h,"[1]; po, Example 1B subject 2 (76 kg), 7.5 mg oral, 6 h, read-out: plasma concentrations",13.4 ng/mL
same,concentration at 7 h,[1]; [6],11.6 ng/mL
same,concentration at 2 h,[1]; [7],12.8 ng/mL
same,concentration at 4 h,[1]; [7],7.92 ng/mL
same,concentration at 6 h,"[1]; po, Example 1B subject 3 (76 kg), 7.5 mg oral, 6 h, read-out: plasma concentrations",5.57 ng/mL
same,concentration at 7 h,[1]; [7],4.84 ng/mL
same,concentration at 1 h,[1]; [8],21.4 ng/mL
same,concentration at 2 h,[1]; [8],13.9 ng/mL
same,concentration at 3 h,[1]; [8],10.6 ng/mL
same,concentration at 4 h,[1]; [8],7.81 ng/mL
same,concentration at 5 h,[1]; [8],6.59 ng/mL
same,concentration at 6 h,"[1]; po, Example 1B subject 4 (95 kg), 7.5 mg oral, 6 h, read-out: plasma concentrations",4.92 ng/mL
same,concentration at 7 h,[1]; [8],4.91 ng/mL
same,concentration at 1 h,[1]; [9],5.64 ng/mL
same,concentration at 2 h,[1]; [9],7.59 ng/mL
same,concentration at 3 h,[1]; [9],5.84 ng/mL
same,concentration at 4 h,[1]; [9],4.58 ng/mL
same,concentration at 5 h,[1]; [9],3.66 ng/mL
same,concentration at 6 h,"[1]; po, Example 1B subject 5 (99 kg), 7.5 mg oral, 6 h, read-out: plasma concentrations",3.35 ng/mL
same,concentration at 7 h,[1]; [9],2.47 ng/mL
same,concentration at 1 h,[1]; [10],4.86 ng/mL
same,concentration at 2 h,[1]; [10],6.3 ng/mL
same,concentration at 3 h,[1]; [10],6.69 ng/mL
same,concentration at 4 h,[1]; [10],5.61 ng/mL
same,concentration at 5 h,[1]; [10],5.19 ng/mL
same,concentration at 6 h,"[1]; po, Example 1B subject 6 (107 kg), 7.5 mg oral, 6 h, read-out: plasma concentrations",4.44 ng/mL
same,concentration at 7 h,[1]; [10],3.36 ng/mL
same,stereotypic behaviour versus rats treated with the vehicle,[2],comparable
same,total movement versus rats treated with the vehicle,[2],comparable
same,locomotor activity when compared to the vehicle-amphetamine group,[3]; [11],lower locomotor activity
same,stereotypic behaviour when compared to the vehicle-amphetamine group,[3]; [11],reduced stereotypic behaviour
same,locomotor activity when compared to the vehicle-amphetamine group,"[3]; Study 2 conclusions, 0.25 mg/kg",lower locomotor activity
same,stereotypic behaviour when compared to the vehicle-amphetamine group,"[3]; Study 2 conclusions, both the tested doses (0.1 mg/kg and 0.25 mg/kg)",reduced stereotypic behaviour
same,locomotor activity when compared to the vehicle-amphetamine group and the corresponding dose of Valbenazine,"[3]; Study 4 conclusions, 1 mg/kg and 1.5 mg/kg",lower locomotor activity
same,stereotypic behaviour when compared to the vehicle-amphetamine group and the corresponding dose of Valbenazine,"[3]; Study 4 conclusions, both the tested doses (1 mg/kg and 1.5 mg/kg)",reduced stereotypic behaviour
same,% VMAT2 blocking,[4]; after 6 hours following administration of 7.5mg,greater than 30%
same,difference between the %VMAT2 blocking levels in the caudate and putamen regions of the striatum,"[4]; each subject, 7.5 mg",No significant difference
same,receptor occupancy at 7.5 mg,"[4]; Example 1B subject 1 (112 kg), read-out: %VMAT2 Occupancy Caudate",38%
same,receptor occupancy at 7.5 mg,"[4]; Example 1B subject 1 (112 kg), read-out: %VMAT2 Occupancy Putamen",39%
same,receptor occupancy at 7.5 mg,"[4]; Example 1B subject 2 (76 kg), read-out: %VMAT2 Occupancy Caudate",65%
same,receptor occupancy at 7.5 mg,"[4]; Example 1B subject 2 (76 kg), read-out: %VMAT2 Occupancy Putamen",63%
same,receptor occupancy at 7.5 mg,"[4]; Example 1B subject 3 (76 kg), read-out: %VMAT2 Occupancy Caudate",41%
same,receptor occupancy at 7.5 mg,"[4]; Example 1B subject 3 (76 kg), read-out: %VMAT2 Occupancy Putamen",42%
same,receptor occupancy at 7.5 mg,"[4]; Example 1B subject 4 (95 kg), read-out: %VMAT2 Occupancy Caudate",34%
same,receptor occupancy at 7.5 mg,"[4]; Example 1B subject 4 (95 kg), read-out: %VMAT2 Occupancy Putamen",32%
same,receptor occupancy at 7.5 mg,"[4]; Example 1B subject 5 (99 kg), read-out: %VMAT2 Occupancy Caudate",36%
same,receptor occupancy at 7.5 mg,"[4]; Example 1B subject 5 (99 kg), read-out: %VMAT2 Occupancy Putamen",36%
same,receptor occupancy at 7.5 mg,"[4]; Example 1B subject 6 (107 kg), read-out: %VMAT2 Occupancy Caudate",44%
same,receptor occupancy at 7.5 mg,"[4]; Example 1B subject 6 (107 kg), read-out: %VMAT2 Occupancy Putamen",49%
same,reduction of level of blocking after 6-7 hours compared to the %VMAT2 blocking after 1-2 hours following administration,"[4]; subject 1, 7.5 mg",30%
same,reduction of level of blocking after 6-7 hours compared to the %VMAT2 blocking after 1-2 hours following administration,"[4]; subject 2, 7.5 mg",11%
